Test results reported in US11667602B2, “Compounds and their use” (AstraZeneca AB, priority 2020, dated 2023).
≈ marks a conversion by molar mass, not a printed value.

Key:
Solubility (Test F) = format: physicochemical; details: arithmetic mean if run multiple times
Experimental: The assay was conducted according to the Solubility Assay described in pages 164-167 of Wernevik, J. et al., “A Fully Integrated Assay Panel for Early Drug Metabolism and Pharmacokinetics Profiling”, Assay and Drug Development Technologies, 2020, 18(4), 157-179. Data are reported in Table 36 as solubility ([…]. Where the assay was run multiple times for the same compound, the arithmetic mean is reported.

[1] = Rat Hepatocyte Stability (Test E); format: in vitro ADME; details: rat, hepatocytes, geometric mean if run multiple times
How it was run: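 Run per the published AstraZeneca-type rat hepatocyte stability protocol (Wernevik et al. panel). Values are mean intrinsic clearance, Clint in μl/min/10^6 cells; geometric mean used for repeated runs.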

human RXFP1 = molecular target: T1, human RXFP1 (Homo sapiens, UniProt Q9HBX9); assay: RXFP1 Hu cAMP (Test A); format: cell-based; design: expressed in transfected cells; host or cells: Jump-In T-REx CHO-K1 cells (ThermoFisher), induced with 10 ng/ml doxycycline for 24 h; details: RXFP1 Hu cAMP; for EC50: read-out: Test A EC50
T1 sequence (Q9HBX9 1-757): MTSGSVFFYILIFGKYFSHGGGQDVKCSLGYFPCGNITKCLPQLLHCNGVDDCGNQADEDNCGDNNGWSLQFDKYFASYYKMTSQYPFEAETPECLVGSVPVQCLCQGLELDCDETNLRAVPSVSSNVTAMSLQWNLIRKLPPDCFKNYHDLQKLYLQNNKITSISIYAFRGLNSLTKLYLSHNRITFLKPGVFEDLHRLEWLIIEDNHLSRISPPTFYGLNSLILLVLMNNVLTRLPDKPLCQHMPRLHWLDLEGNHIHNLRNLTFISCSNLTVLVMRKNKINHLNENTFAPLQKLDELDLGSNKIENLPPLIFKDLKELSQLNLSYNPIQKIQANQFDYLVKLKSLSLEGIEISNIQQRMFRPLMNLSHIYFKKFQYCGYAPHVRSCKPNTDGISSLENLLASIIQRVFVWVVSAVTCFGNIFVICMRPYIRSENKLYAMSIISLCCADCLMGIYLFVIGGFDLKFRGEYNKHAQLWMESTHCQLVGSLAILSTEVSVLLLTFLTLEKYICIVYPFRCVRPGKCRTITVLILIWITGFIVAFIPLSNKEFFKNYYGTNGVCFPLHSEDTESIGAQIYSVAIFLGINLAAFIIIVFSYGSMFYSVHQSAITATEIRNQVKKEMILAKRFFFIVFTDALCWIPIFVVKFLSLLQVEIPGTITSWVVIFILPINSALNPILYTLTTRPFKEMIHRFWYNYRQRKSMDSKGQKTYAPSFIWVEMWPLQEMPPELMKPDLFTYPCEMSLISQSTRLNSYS
How it was run: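 Cells: CHO-K1 stably carrying human RXFP1, expressed after 24 h 10 ng/ml doxycycline; 0.5 mM IBMX final, HTRF detection after 2 h at room temperature.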

[2] = Human Liver Microsomal Stability (Test C); format: in vitro ADME; details: human, liver microsomes
How it was run: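 Human liver microsome incubation per the Wernevik et al. integrated DMPK panel protocol. Intrinsic clearance reported as CLint in μl/min/mg protein, averaged arithmetically over repeat runs.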

[3] = Human Plasma Protein Binding (Test B); format: in vitro ADME; details: fraction unbound (fu)
How it was run: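 Human plasma protein binding run per the published Wernevik et al. (2020) integrated DMPK panel protocol. Values are fraction unbound (fu, % free); repeat runs averaged arithmetically.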

SMILES | solubility (Solubility (Test F)) [µM] | hepatocyte CLint [1] [µL/min/1e6 cells] | EC50 (human RXFP1) [nM] | microsomal CLint [2] [µL/min/mg] | Test B Human Plasma Protein Binding (% free) [3] [% free] | Test A Sinf (human RXFP1) [%]
COc1cc(C#N)c(O[C@H]2CC[C@@](C)(C(=O)O)CC2)cc1C(=O)N[C@@H]1[C@H]2CC[C@H](C2)[C@@H]1C(=O)NCC(=O)NC(C)C [Example 85] | 920 (≈ 523 µg/mL) | 15 | > 9400 | < 3 | 50 | 
COc1cc(F)c(O[C@H]2CC[C@@](F)(C(=O)O)CC2)cc1C(=O)N[C@@H]1[C@H]2CC[C@H](C2)[C@@H]1C(=O)Nc1cccc(S(=O)(=O)C(F)(F)F)c1 [Example 416] | > 1000 | 10 | 320 | 9.9 | 1.2 | 103
COc1cc(C#N)c(O[C@H]2CC[C@@](C)(C(=O)O)CC2)cc1C(=O)N[C@@H]1[C@H]2CC[C@H](C2)[C@@H]1C(=O)NCc1nccc(C(F)F)n1 [Example 114] | 810 (≈ 495 µg/mL) | 94 | > 9400 | 17 | 17 | 
COc1cc(F)c(O[C@H]2CC[C@@H](C(=O)O)CC2)cc1C(=O)N[C@@H]1[C@H]2CC[C@H](C2)[C@@H]1C(=O)Nc1c(F)c(F)c(F)c(F)c1F [Example 16, (1S,4s)-4-(2-Fluoro-4-methoxy-5-(((1S,2R,3S,4R)-3-((perfluorophenyl)carbamoyl)bicyclo[2.2.1]heptan-2-yl)carbamoyl)phenoxy)cyclohexane-1-carboxylic acid] | 330 (≈ 203 µg/mL) | 49 | 330 | 9.3 | 2.2 | 93
CCC(CC)CNC(=O)[C@H]1[C@@H]2CC[C@@H](C2)[C@H]1NC(=O)c1cc(O[C@H]2CC[C@@](C)(C(=O)O)CC2)c(C#N)cc1OC [Example 88] | 610 (≈ 338 µg/mL) | 26 | 33 | 40 | 4.4 | 124
COc1cc(F)c(O[C@H]2CC[C@@H](C(=O)O)CC2)cc1C(=O)N[C@@H]1[C@H]2CC[C@H](C2)[C@@H]1C(=O)Nc1cc(F)c(F)c(F)c1 [Example 187] | 580 (≈ 336 µg/mL) | 21 | 250 | 15 | 0.41 | 105
COc1cc(F)c(-c2ccc(C(=O)O)cc2)cc1C(=O)N[C@H]1[C@@H](C(=O)Nc2cccc(S(=O)(=O)C(F)(F)F)c2)[C@@H]2C=C[C@H]1C2 (racemic) [Example 224, rac-2′-Fluoro-4′-methoxy-5′-(((1R,2R,3S,4S)-3-((3-((trifluoromethyl)sulfonyl)phenyl)carbamoyl)bicyclo[2.2.1]hept-5-en-2-yl)carbamoyl)-[1,1′-biphenyl]-4-carboxylic acid] | 870 (≈ 550 µg/mL) | 19 | 190 | 6.3 | 0.16 | 92
COc1cc(F)c(C2=CCC(C(=O)O)CC2)cc1C(=O)N[C@@H]1[C@H]2CC[C@H](C2)[C@@H]1C(=O)Nc1cccc(S(=O)(=O)C(F)(F)F)c1 (mixture of isomers) [Example 267, (RS)-2′-Fluoro-4′-methoxy-5′-(((1S,2R,3S,4R)-3-((3-((trifluoromethyl)sulfonyl)phenyl)carbamoyl)bicyclo[2.2.1]heptan-2-yl)carbamoyl)-2,3,4,5-tetrahydro-[1,1′-biphenyl]-4-carboxylic acid] | 680 (≈ 434 µg/mL) | 14 | > 350 | 32 | 0.39 | 93
COc1cc(F)c(O[C@H]2CC[C@@H](C(=O)O)CC2)cc1C(=O)N[C@@H]1[C@H]2CC[C@H](C2)[C@@H]1C(=O)Nc1cc(C#N)cc(C(F)(F)F)c1 [Example 191, (1S,4s)-4-(5-(((1S,2R,3S,4R)-3-((3-Cyano-5-(trifluoromethyl)phenyl)carbamoyl)bicyclo[2.2.1]heptan-2-yl)carbamoyl)-2-fluoro-4-methoxyphenoxy)cyclohexane-1-carboxylic acid] | > 1000 | 15 | > 3600 | 20 | 1.1 | 86
COc1cc(F)c(O[C@H]2CC[C@@](C)(C(=O)O)CC2)cc1C(=O)Nc1cc(C)c(C)cc1C(=O)NCC1(C)CCC1 [Example 212, (1s,4s)-4-(5-((4,5-Dimethyl-2-(((1-methylcyclobutyl)methyl)carbamoyl)phenyl)carbamoyl)-2-fluoro-4-methoxyphenoxy)-1-methylcyclohexane-1-carboxylic acid] | 4 (≈ 2.22 µg/mL) | 17 | 310 | 6.5 | <2.7 | 134

Next, values leading:

solubility (Solubility (Test F)) [µM] | hepatocyte CLint [1] [µL/min/1e6 cells] | EC50 (human RXFP1) [nM] | microsomal CLint [2] [µL/min/mg] | Test B Human Plasma Protein Binding (% free) [3] [% free] | Test A Sinf (human RXFP1) [%] | SMILES
850 (≈ 505 µg/mL) | 64 | 410 | 23 | 2.7 | 107 | COc1cc(F)c(O[C@H]2CC[C@@H](C(=O)O)CC2)cc1C(=O)N[C@@H]1[C@H]2CC[C@H](C2)[C@@H]1C(=O)Nc1ccnc(C(F)(F)F)c1 [Example 12, (1S,4s)-4-(2-Fluoro-4-methoxy-5-(((1S,2R,3S,4R)-3-((2-(trifluoromethyl)pyridin-4-yl)carbamoyl)bicyclo[2.2.1]heptan-2-yl)carbamoyl)phenoxy)cyclohexane-1-carboxylic acid]
50 (≈ 32.5 µg/mL) | 13 | 420 | 23 | 0.50 | 99 | COc1cc(F)c(O[C@H]2CC[C@@H](C(=O)O)CC2)cc1C(=O)N[C@@H]1[C@H]2CC[C@H](C2)[C@@H]1C(=O)Nc1ccc(S(F)(F)(F)(F)F)cc1 [Example 183]
990 (≈ 612 µg/mL) | 28 | > 3500 | < 3 | 20 | 100 | COc1cc(C#N)c(O[C@H]2CC[C@@](C)(C(=O)O)CC2)cc1C(=O)N[C@@H]1[C@H]2CC[C@H](C2)[C@@H]1C(=O)NCC1(O)CCC(F)(F)CC1 [Example 101]
2.8 (≈ 1.57 µg/mL) | 13 | 490 | 16 | 1.1 | 108 | COc1cc(F)c(O[C@H]2CC[C@@](C)(C(=O)O)CC2)cc1C(=O)Nc1cccc(Cl)c1C(=O)NCC1(C)CCC1 [Example 54, (1s,4s)-4-(5-((3-Chloro-2-(((1-methylcyclobutyl)methyl)carbamoyl)phenyl)carbamoyl)-2-fluoro-4-methoxyphenoxy)-1-methylcyclohexane-1-carboxylic acid]
24 (≈ 14.7 µg/mL) | < 1 | > 50000 | < 3 | 3.2 |  | COc1cc(F)c(O[C@H]2CC[C@@H](C(=O)O)CC2)cc1C(=O)N[C@H]1[C@@H](C(=O)Nc2ccc(F)c(C(F)(F)F)c2)[C@H]2CC[C@@H]1O2 [Example 49, (1R,4s)-4-(2-Fluoro-5-(((1S,2S,3R,4R)-3-((4-fluoro-3-(trifluoromethyl)phenyl)carbamoyl)-7-oxabicyclo[2.2.1]heptan-2-yl)carbamoyl)-4-methoxyphenoxy)cyclohexane-1-carboxylic acid]
